How the values were obtained:
[1] = tested on: patients with metastatic colorectal cancer; assay: Randomised phase II trial: tumour response (WHO criteria) and time-to-event efficacy; details: for Complete response, % / Duration of response and stabilisation, median (min–max) / Overall response (CR+PR), % / Partial response, % / Progressive disease, % / Response not evaluable, % / Stable disease, % / Survival, median (min–max) / Time to progression, median (min–max) / Time to treatment failure, median (min–max): intent-to-treat
Method: A total of 17 centres in Europe participated in this study: two in Denmark, one in Ireland, four in The Netherlands, five in Norway, two in Sweden and three in Russia. […] Randomisation was performed centrally by Aventis Pharma R&D, Antony Cedex, France. […] A total of 37 evaluable patients per arm had to be included.
Pretreatment evaluation included a complete medical history and complete physical examination. Before each course, blood chemistry and haematology profiles were checked. Haematology was checked weekly. […] An external response review committee (ERRC) was established during the study to perform assessments of tumour response. […] Adverse events that were not reported according to NCI-CTC were graded as mild, moderate, severe, or life threatening.
The primary efficacy variable was response rate; overall response was defined as complete plus partial response. The secondary efficacy variables were the duration of response and stabilisation, time to progression, time to treatment failure and the overall survival. The differences between the four treatment groups were explored with the χ^2 test. Subsequent statistical tests were performed only in the case of evidence of difference to provide the significance level of difference. The Fisher exact test was used to compare treatment groups on categorical variables. For continuous variables, if a normal distribution could be assumed, Student's t-tests were used. Otherwise, they were analysed by nonparametric methods. Exact confidence intervals were calculated using binominal distribution probability. Censored data were analysed using the Kaplan–Meier method; the log-rank test was used to compare the groups. Differences in pharmacokinetic parameters between the four treatment arms were evaluated using one-way analysis of variance (ANOVA) combined with least significant difference (LSD) method (P was set at 0.05) and the Student's t-test was used to calculate the P-value of significant differences. The Pearson correlation coefficient (r) was calculated between dose and pharmacokinetic parameters. Statistical analyses were performed with SPSS (version 10.0.7 for Windows, SPSS Inc.). All tests for significance were two-tailed.

[2] = 140 mg m^−2: 10 mg m^−2 irinotecan as 14-day prolonged infusions, N=6, mean±s.d.; ref 16 (Herben et al, 1999); cited from earlier work
[3] = arm A (350 mg m^−2 90-min i.v. q3 weeks)
[4] = arm B (125 mg m^−2 90-min i.v. weekly × 4 q6 weeks)
[5] = arm C (250 mg m^−2 90-min i.v. q2 weeks)
[6] = arm D (10 mg m^−2 day^−1 14-day continuous infusion q3 weeks)

## CCc1c2c(nc3ccc(OC(=O)N4CCC(N5CCCCC5)CC4)cc13)-c1cc3c(c(=O)n1C2)COC(=O)[C@]3(O)CC [irinotecan]
[1]; [3]
  Patients who discontinued treatment because of progressive disease: 81%
  Complete response, %: 0%
  Duration of response and stabilisation, median (min–max): 5.9 (0.8–12.7) Months
  Overall response (CR+PR), %: 7%
  Partial response, %: 7%
  Progressive disease, %: 46%
  Response not evaluable, %: 2%
  Stable disease, %: 44%
  Survival, median (min–max): 9.4 (1.0–15.3) Months
  Time to progression, median (min–max): 2.7 (1.0–12.8) Months
  Time to treatment failure, median (min–max): 2.7 (1.0–12.8) Months
[1]; [4]
  Patients who discontinued treatment because of progressive disease: 57%
  Complete response, %: 0%
  Duration of response and stabilisation, median (min–max): 3.9 (1.0–13.0) Months
  Overall response (CR+PR), %: 5%
  Partial response, %: 5%
  Progressive disease, %: 19%
  Response not evaluable, %: 14%
  Stable disease, %: 62%
  Survival, median (min–max): 7.1 (0.6–13.5) Months
  Time to treatment failure, median (min–max): 2.3 (0.6–8.3) Months
[1]; [5]
  Patients who discontinued treatment because of progressive disease: 61%
  Complete response, %: 0%
  Duration of response and stabilisation, median (min–max): 5.3 (1.3–8.9) Months
  Overall response (CR+PR), %: 11%
  Partial response, %: 11%
  Progressive disease, %: 33%
  Response not evaluable, %: 2%
  Stable disease, %: 54%
  Survival, median (min–max): 8.6 (0.7–16.7) Months
  Time to progression, median (min–max): 3.8 (0.0–8.9) Months
  Time to treatment failure, median (min–max): 3.2 (0.4–7.1) Months
[1]; [6]
  Patients who discontinued treatment because of progressive disease: 55%
  Complete response, %: 2%
  Duration of response and stabilisation, median (min–max): 3.4 (1.3–6.9) Months
  Overall response (CR+PR), %: 5%
  Partial response, %: 2%
  Progressive disease, %: 34%
  Response not evaluable, %: 18%
  Stable disease, %: 43%
  Survival, median (min–max): 6.4 (1.1–15.1) Months
  Time to progression, median (min–max): 2.8 (0.0–7.0) Months
  Time to treatment failure, median (min–max): 1.7 (0.5–7.1) Months
[1]; range across the four arms A–D
  Median survival: 6.4–9.4 months
  Overall response rates: 5–11%
  Time to progression: 2.7–3.8 months
  Time to treatment failure: 1.7–3.2 months
[2]
  Irinotecan AUC: 12.8 ± 3.9 µM·h

— article PMC2409929 (British Journal of Cancer, 2004)
